Results on 28 molecules are retold here after patent US10844044B2 (Vanderbilt University, priority 2018, dated 2020).

The structures appear in SMILES notation.

The test relates to MV4:11 human cancer cell lines. Put plainly: Anti-proliferative activity, CellTiter-Glo viability assay, 7 day protocol. It counts as cell-based. The settings on record: Homo sapiens, MV4-11, 168 h, MV4:11 cells, 7 day incubation, read-out: GI50 on cellular proliferation of MV4:11 human cancer cell lines. Here is the method: Viability assays are performed by dispensing […] into each well of an opaque 384-well plate and adding compounds at the indicated concentrations in a final volume of 32 μL and a final concentration of DMSO of 0.1% for all samples. After a set incubation period, 7 day protocol, the viability of cells in each well is assessed using the CellTiter-Glo assay (Promega), read on a GloMax 96 Microplane Luminometer (Promega). Serial dilutions of each cell type are included in all assays to generate standard curves and determine assay measurements are taken within the dynamic range of the instrument. GI50 values are calculated based on three biological replicates, each with three technical replicates. Data are expressed as mean plus/minus S.E.M.
On the technique in general: Cellular ATP, detected with luciferase, serves as a proxy for viable cell number.
Regarding `Cc1cc(CNC(=O)c2cc(Cn3ccn(C)c3=N)cc(-c3ncc(F)cc3C)c2)ccc1Cl` [Example 70, N-(4-Chloro-3-methylbenzyl)-3-(5-fluoro-3-methylpyridin-2-yl)-5-((2-imino-3-methyl-2,3-dihydro-1H-imidazol-1-yl)methyl)benzamide], the GI50 came out at 2400 nM.

For the molecule `Cc1cc([C@@H](NC(=O)c2cc(Cn3ccn(C)c3=N)cc(-c3ncc(F)cc3C(F)(F)F)c2)C2CC2)ccc1F` [Example 72, (S)—N-(Cyclopropyl(4-fluoro-3-methylphenyl)methyl)-3-(5-fluoro-3-(trifluoromethyl)pyridin-2-yl)-5-((2-imino-3-methyl-2,3-dihydro-1H-imidazol-1-yl)methyl)benzamide], the GI50 came to 180 nM.

In the case of `Cc1cc([C@@H](NC(=O)c2cc(Cn3ccn(C)c3=N)cc(-c3ccc(F)cc3OC(F)F)c2)C2CC2)ccc1F` [Example 73, (S)—N-(cyclopropyl(4-fluoro-3-methylphenyl)methyl)-2′-(difluoromethoxy)-4′-fluoro-5-((2-imino-3-methyl-2,3-dihydro-1-imidazol-1-yl)methyl)-[1,1′-biphenyl]-3-carboxamide], the GI50 amounted to 1800 nM.

With `COc1cc(OC)cc(C(NC(=O)c2cc(Cn3ccn(C)c3=N)cc(-c3ncc(F)cc3C(F)(F)F)c2)C2CC2)c1` (stereo not shown) [Example 74, N-(Cyclopropyl(3,5-dimethoxyphenyl)methyl)-3-(5-fluoro-3-(trifluoromethyl)pyridin-2-yl)-5-((2-imino-3-methyl-2,3-dihydro-1H-imidazol-1-yl)methyl)benzamide], the GI50 was determined as 4500 nM.

For `Cc1ccnc(C(NC(=O)c2cc(Cn3ccn(C)c3=N)cc(-c3ncc(F)cc3C(F)(F)F)c2)C2CC2)c1` (stereo not shown) [Example 75, N-(Cyclopropyl(4-methylpyridin-2-yl)methyl)-3-(5-fluoro-3-(trifluoromethyl)pyridin-2-yl)-5-((2-imino-3-methyl-2,3-dihydro-1H-imidazol-1-yl)methyl)benzamide], the GI50 stood at 12000 nM.

Consider `Cc1cc(CNC(=O)c2cc(Cn3ccn(C)c3=N)cc(-c3cccnc3C(F)(F)F)c2)ccc1Cl` [Example 76, N-(4-Chloro-3-methylbenzyl)-3-((2-imin-3-methyl-2,3-dihydro-1H-imidazol-1-yl)methyl)-5-(2-(trifluoromethyl)pyridin-3-yl)benzamide], for which the GI50 is 260 nM.

Turning to `Cc1ccnc(C(NC(=O)c2cc(Cn3ccn(C)c3=N)cc(-c3cccnc3C(F)(F)F)c2)C2CC2)c1` (stereo not shown) [Example 77, N-(Cyclopropyl(4-methylpyridin-2-yl)methyl)-3-((2-imino-3-methyl-2,3-dihydro-1H-imidazol-1-yl)methyl)-5-(2-(trifluoromethyl)pyridin-3-yl)benzamide], the GI50 turned out to be 1200 nM.

In the case of `COc1ccnc([C@@H](NC(=O)c2cc(Cn3ccn(C)c3=N)cc(-c3ccc(F)cc3C)c2)C2CC2)c1` [Example 97], the GI50 was found to be 250 nM.

On to `Cc1cc([C@@H](NC(=O)c2cc(Cn3ccn(C)c3=N)cc(-c3ccnn3C(C)C)c2)C2CC2)ccc1F` [Example 102, (S)—N-(Cyclopropyl(4-fluoro-3-methylphenyl)methyl)-3-((2-imino-3-methyl-2,3-dihydro-1H-imidazol-1-yl)methyl)-5-(1-isopropyl-1H-pyrazol-5-yl)benzamide], for which the GI50 came out at 2160 nM.

Regarding `Cc1cc([C@@H](NC(=O)c2cc(Cn3ccn(C)c3=N)cc(-c3ccc(F)cc3C(F)(F)F)c2F)C2CC2)ccc1F` [Example 109], the GI50 is below 100 nM.

For the molecule `Cc1cc([C@@H](NC(=O)c2cc(Cn3ccn(C)c3=N)cc(OCC3CC3)c2)C2CC2)ccc1F` [Example 175], the GI50 is 320 nM.

On to `Cc1cc([C@H](C)NC(=O)c2cc(Cn3ccoc3=N)cc(-c3ccc(F)cc3C)c2)ccc1F` [Example 230, (S)-4′-Fluoro-N-(1-(4-fluoro-3-methylphenyl)ethyl)-5-((2-iminooxazol-3(2H)-yl)methyl)-2′-methyl-[1,1′-biphenyl]-3-carboxamide], for which the GI50 came to 640 nM.

Regarding `Cc1cc([C@H](NC(=O)c2cc(Cn3ccoc3=N)cc(-c3ccc(F)cc3C)c2)C(F)(F)F)ccc1F` [Example 231, (S)-4′-Fluoro-5-((2-iminooxazol-3(2H)-yl)methyl)-2′-methyl-N-(2,2,2-trifluoro-1-(4-fluoro-3-methylphenyl)ethyl)-[1,1′-biphenyl]-3-carboxamide], the GI50 worked out at 870 nM.

For `Cc1cc([C@@H](NC(=O)c2cc(Cn3ccoc3=N)cc(-c3ccc(F)cc3C)c2)C2CC2)ccc1F` [Example 232, (S)—N-(Cyclopropyl(4-fluoro-3-methylphenyl)methyl)-4′-fluoro-5-((2-iminooxazol-3(2H)-yl)methyl)-2′-methyl-[1,1′-biphenyl]-3-carboxamide], the GI50 is 210 nM.

Consider `Cc1cc(F)ccc1-c1cc(Cn2ccoc2=N)cc(C(=O)N[C@@H](C)c2ccc(F)c(C(F)(F)F)c2)c1` [Example 233, (S)-4′-Fluoro-N-(1-(4-fluoro-3-(trifluoromethyl)phenyl)ethyl)-5-((2-iminooxazol-3(2H)-yl)methyl)-2′-methyl-[1,1′-biphenyl]-3-carboxamide], for which the GI50 is 1100 nM.

Take `Cc1cc([C@H](C)NC(=O)c2cc(Cn3ccoc3=N)cc(-c3ccc(F)cc3C)c2)ccc1Cl` [Example 234, (S)—N-(1-(4-Chloro-3-methylphenyl)ethyl)-4′-fluoro-5-((2-iminooxazol-3(2H)-yl)methyl)-2′-methyl-[1,1′-biphenyl]-3-carboxamide]: the GI50 was 870 nM.

For `Cc1ccnc(C(NC(=O)c2cc(Cn3ccoc3=N)cc(-c3ncc(F)cc3C)c2)C2CC2)c1` (stereo not shown) [Example 239, N-(Cyclopropyl(4-methylpyridin-2-yl)methyl)-3-(5-fluoro-3-methylpyridin-2-yl)-5-((2-iminooxazol-3(2H)-yl)methyl)benzamide], the GI50 came to 5300 nM.

On to `Cc1cc([C@@H](NC(=O)c2cc(Cn3ccoc3=N)cc(-c3ncc(F)cc3C(F)(F)F)c2)C2CC2)ccc1F` [Example 241, (S)—N-(Cyclopropyl(4-fluoro-3-methylphenyl)methyl)-3-(5-fluoro-3-(trifluoromethyl)pyridin-2-yl)-5-((2-iminooxazol-3(2H)-yl)methyl)benzamide], for which the GI50 was found to be 12000 nM.

Regarding `Cc1cc([C@@H](NC(=O)c2cc(Cn3ccoc3=N)cc(-c3ccc(F)cc3OC(F)F)c2)C2CC2)ccc1F` [Example 242, (S)—N-(Cyclopropyl(4-fluoro-3-methylphenyl)methyl)-2′-(difluoromethoxy)-4′-fluoro-5-((2-iminooxazol-3(2 h)-yl)methyl)-[1,1′-biphenyl]-3-carboxamide], the GI50 worked out at 120 nM.

`Cc1cc([C@@H](NC(=O)c2cc(Cn3ccoc3=N)cc(-c3cccnc3C(F)(F)F)c2)C2CC2)ccc1F` [Example 243, (S)—N-(Cyclopropyl(4-fluoro-3-methylphenyl)methyl)-3-((2-iminooxazol-3(2H)-yl)methyl)-5-(2-(trifluoromethyl)pyridin-3-yl)benzamide]: the GI50 is below 100 nM.

On to `COc1cc(CNC(=O)c2cc(Cn3ccoc3=N)cc(-c3cccnc3C(F)(F)F)c2)cc(OC)c1` [Example 244, N-(3,5-Dimethoxybenzyl)-3-((2-iminooxazol-3(2H)-yl)methyl)-5-(2-(trifluoromethyl)pyridin-3-yl)benzamide], for which the GI50 amounted to 300 nM.

Take `COc1cc(OC)cc(C(NC(=O)c2cc(Cn3ccoc3=N)cc(-c3cccnc3C(F)(F)F)c2)C2CC2)c1` (stereo not shown) [Example 245, N-(Cyclopropyl(3,5-dimethoxyphenyl)methyl)-3-((2-iminooxazol-3(2H)-yl)methyl)-5-(2-(trifluoromethyl)pyridin-3-yl)benzamide]: the GI50 was 180 nM.

As for `Cc1cc([C@@H](NC(=O)c2cc(CN3CCOC3=N)cc(-c3cccnc3C(F)(F)F)c2)C2CC2)ccc1F` [Example 253, (S)-(Cyclopropyl(4-fluoro-3-methylphenyl)methyl)-3-((2-iminooxazolidin-3-yl)methyl)-5-(2-(trifluoromethyl)pyridin-3-yl)benzamide], the GI50 was below 100 nM.

Regarding `CCn1cc(-c2cc(CN3CCOC3=N)cc(C(=O)N[C@H](c3ccc(F)c(C)c3)C3CC3)c2)c(C(F)(F)F)n1` [Example 276, (S)—N-(Cyclopropyl(4-fluoro-3-methylphenyl)methyl)-3-(1-ethyl-3-(trifluoromethyl) H-pyrazol-4-yl)-5-((2-iminooxazolidin-3-yl)methyl)benzamide], the GI50 was below 100 nM.

Regarding `CCn1cc(-c2cc(Cn3ccoc3=N)cc(C(=O)NCc3ccc(=O)n(C)c3)c2)c(C(F)(F)F)n1` [Example 292, 3-(1-Ethyl-3-(trifluoromethyl)-1H-pyrazol-4-yl)-5-((2-iminooxazol-3(2H)-yl)methyl)-N-((1-methyl-6-oxo-1,6-dihydropyridin-3-yl)methyl)benzamide], the GI50 is 710 nM.

In the case of `COc1cc(CNC(=O)c2cc(Cn3ccsc3=N)cc(-c3ccc(F)cc3C)c2)cc(OC)c1` [Example 307, N-(3,5-Dimethoxybenzyl)-4′-fluoro-5-((2-iminothiazol-3(2H)-yl)methyl)-2′-methyl-[1,1′-biphenyl]-3-carboxamide], the GI50 worked out at 910 nM.

With `Cc1nc(F)ccc1-c1cc(CN2CCCC2=N)cc(C(=O)NCc2ccc(Cl)c(Cl)c2)c1` [Example 331, N-(3,4-Dichlorobenzyl)-3-(6-fluoro-2-methylpyridin-3-yl)-5-((2-iminopyrrolidin-1-yl)methyl)benzamide], the GI50 worked out at 950 nM.

Regarding `Cc1cc(-c2cc(CN3CCCC3=N)cc(C(=O)NCc3ccc(Cl)c(Cl)c3)c2)c(C)cc1F` [Example 332, N-(3,4-Dichlorobenzyl)-4′-fluoro-5-((2-iminopyrrolidin-1-yl)methyl)-2′,5′-dimethyl-[1,1′-biphenyl]-3-carboxamide], the GI50 amounted to 1400 nM.
